Test results published in patent publication US12703729B2, “GIP agonist compounds and methods” (Zealand Pharma A/S, priority 2014, dated 2026).
Starred links: 1 amine or outer side, 2 acyl side, 3 side chain; linkers in the order of their positions; H or OH if unused. Non-standard residues stand in square brackets, D forms with d. Residues, ends and D or L forms follow the SMILES beside them. Groups on a side chain read outwards from the residue. *: point of attachment. X1 = O=C(O)CCCCCCCCCCCCCCCCCCC(=O)N1CCN(CC(=O)*)CC1; C20 diacid = O=C(O)CCCCCCCCCCCCCCCCCCC(=O)*; γGlu = O=C(O)[C@H](CCC(=O)[*:2])N[*:1]; AEEA = NCCOCCOCC(=O)O; Aib = CC(C)(N)C(=O)O

Assays:
in vivo = details: male, C57BL/6J, mouse; for bioavailability: Bioavailability s.c.; for half-life: 200 nmol/kg
[1] = molecular target: T1, human GIP receptor (GIP R) (Homo sapiens, UniProt P48546); test: Activity assay at human GIP receptor, cAMP induction (AlphaScreen), Example 3
T1 sequence (P48546 22-466): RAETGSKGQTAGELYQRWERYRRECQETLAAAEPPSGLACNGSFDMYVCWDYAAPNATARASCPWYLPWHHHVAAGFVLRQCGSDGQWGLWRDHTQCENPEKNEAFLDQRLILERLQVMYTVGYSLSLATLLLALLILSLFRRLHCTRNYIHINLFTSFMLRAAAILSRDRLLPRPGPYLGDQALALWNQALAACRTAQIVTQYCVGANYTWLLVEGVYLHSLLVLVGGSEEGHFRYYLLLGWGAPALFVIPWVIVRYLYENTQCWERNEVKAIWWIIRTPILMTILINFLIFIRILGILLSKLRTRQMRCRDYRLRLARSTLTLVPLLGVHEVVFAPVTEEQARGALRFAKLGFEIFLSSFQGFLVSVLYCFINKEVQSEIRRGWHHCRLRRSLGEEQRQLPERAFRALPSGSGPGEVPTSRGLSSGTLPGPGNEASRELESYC

[2] = molecular target: human GLP-1 receptor (GLP-1R) (Homo sapiens, UniProt P43220); test: Activity assay at human GLP-1 receptor, cAMP induction (AlphaScreen), Example 3
Chain of human GLP-1 receptor (GLP-1R) (P43220 24-463): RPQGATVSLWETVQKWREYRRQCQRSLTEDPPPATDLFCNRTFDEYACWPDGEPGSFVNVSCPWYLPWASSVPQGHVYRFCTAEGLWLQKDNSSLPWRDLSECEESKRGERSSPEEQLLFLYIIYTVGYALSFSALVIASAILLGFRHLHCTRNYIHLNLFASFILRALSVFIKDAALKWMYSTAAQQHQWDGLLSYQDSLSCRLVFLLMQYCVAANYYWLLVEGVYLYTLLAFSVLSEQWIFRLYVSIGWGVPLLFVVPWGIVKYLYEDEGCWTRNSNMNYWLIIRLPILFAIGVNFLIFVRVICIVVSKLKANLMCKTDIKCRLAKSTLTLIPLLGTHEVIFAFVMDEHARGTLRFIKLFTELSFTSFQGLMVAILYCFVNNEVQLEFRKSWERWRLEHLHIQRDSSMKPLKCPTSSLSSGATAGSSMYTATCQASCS

human GIP R = molecular target: T2, human GIP R (Homo sapiens, UniProt P48546); test: cell-based
T2 sequence (P48546 22-466): T1 sequence (P48546 22-466)

[3] = iv, Terminal elimination half-life T½ i.v.
[4] = sc, Terminal elimination half-life T½ s.c.

Compound | bioavailability (in vivo) | half-life (in vivo; [3]) | Tmax (in vivo; sc) | half-life (in vivo; [4]) | EC50 [1] | EC50 [2] | EC50 (human GIP R)
CC[C@H](C)[C@H](NC(=O)[C@H](CCCCN)NC(=O)[C@H](CCC(=O)O)NC(=O)[C@H](CC(C)C)NC(=O)[C@H](CCC(=O)O)NC(=O)[C@@H](NC(=O)[C@H](CO)NC(=O)[C@H](Cc1ccc(O)cc1)NC(=O)[C@H](CC(=O)O)NC(=O)[C@H](CO)NC(=O)[C@@H](NC(=O)[C@H](Cc1ccccc1)NC(=O)[C@@H](NC(=O)CNC(=O)[C@H](CCC(=O)O)NC(=O)C(C)(C)NC(=O)[C@@H](N)Cc1ccc(O)cc1)[C@@H](C)O)[C@@H](C)CC)[C@@H](C)CC)C(=O)N[C@@H](C)C(=O)N[C@@H](CCC(N)=O)C(=O)N[C@@H](CCCNC(=N)N)C(=O)N[C@@H](C)C(=O)N[C@@H](Cc1ccccc1)C(=O)N[C@H](C(=O)N[C@@H](CCC(=O)O)C(=O)N[C@@H](Cc1c[nH]c2ccccc12)C(=O)N[C@@H](CC(C)C)C(=O)N[C@@H](CC(C)C)C(=O)N[C@@H](C)C(=O)N[C@@H](CCC(N)=O)C(=O)NCC(=O)N1CCC[C@H]1C(=O)N[C@@H](CO)C(=O)N[C@@H](CO)C(=O)NCC(=O)N[C@@H](C)C(=O)N1CCC[C@H]1C(=O)N1CCC[C@H]1C(=O)N1CCC[C@H]1C(=O)N[C@@H](CO)C(=O)N[C@@H](CCCCNC(=O)COCCOCCNC(=O)COCCOCCNC(=O)CC[C@H](NC(=O)CCCCCCCCCCCCCCCCCCC(=O)O)C(=O)O)C(N)=O)C(C)C [Compound 13] (H-Y[Aib]EGTFISDYSIELEKIAQRAFVEWLLAQGPSSGAPPPSK([AEEA-AEEA-γGlu-C20 diacid])-NH2) | 75% | 14.4 h | 8 h | 13.7 h | 0.008 nM | > 10 nM | 0.014 nM
CC[C@H](C)[C@H](NC(=O)[C@H](CO)NC(=O)[C@H](Cc1ccc(O)cc1)NC(=O)[C@H](CC(=O)O)NC(=O)[C@H](CO)NC(=O)[C@@H](NC(=O)[C@H](Cc1ccccc1)NC(=O)[C@@H](NC(=O)CNC(=O)[C@H](CCC(=O)O)NC(=O)C(C)(C)NC(=O)[C@@H](N)Cc1ccc(O)cc1)[C@@H](C)O)[C@@H](C)CC)C(=O)N[C@@H](CCC(=O)O)C(=O)N[C@@H](CC(C)C)C(=O)N[C@@H](CC(=O)O)C(=O)N[C@@H](CCCCN)C(=O)N[C@@H](CCCCNC(=O)COCCOCCNC(=O)COCCOCCNC(=O)CC[C@H](NC(=O)CCCCCCCCCCCCCCCCCCC(=O)O)C(=O)O)C(=O)N[C@@H](C)C(=O)N[C@@H](C)C(=O)N[C@@H](CCC(N)=O)C(=O)N[C@@H](CC(=O)O)C(=O)N[C@@H](Cc1ccccc1)C(=O)N[C@H](C(=O)N[C@@H](CC(N)=O)C(=O)N[C@@H](Cc1c[nH]c2ccccc12)C(=O)N[C@@H](CC(C)C)C(=O)N[C@@H](CC(C)C)C(=O)N[C@@H](C)C(=O)NCC(=O)N1CCC[C@H]1C(=O)N[C@@H](CO)C(=O)N[C@@H](CO)C(=O)NCC(=O)N[C@@H](C)C(=O)N1CCC[C@H]1C(=O)N1CCC[C@H]1C(=O)N1CCC[C@H]1C(=O)N[C@@H](CO)C(N)=O)C(C)C [Compound 15] (H-Y[Aib]EGTFISDYSIELDKK([AEEA-AEEA-γGlu-C20 diacid])AAQDFVNWLLAGPSSGAPPPS-NH2) | 87% | 19.2 h | 8 h | 16.7 h | 0.024 nM | > 100 nM | 0.012 nM
CC[C@H](C)[C@H](NC(=O)[C@H](CO)NC(=O)[C@H](Cc1ccc(O)cc1)NC(=O)[C@H](CC(=O)O)NC(=O)[C@H](CO)NC(=O)[C@@H](NC(=O)[C@H](Cc1ccccc1)NC(=O)[C@@H](NC(=O)CNC(=O)[C@H](CCC(=O)O)NC(=O)C(C)(C)NC(=O)[C@@H](N)Cc1ccc(O)cc1)[C@@H](C)O)[C@@H](C)CC)C(=O)N[C@@H](CCC(=O)O)C(=O)N[C@@H](CC(C)C)C(=O)N[C@@H](CC(=O)O)C(=O)N[C@@H](CCCCN)C(=O)N[C@@H](CCCCNC(=O)COCCOCCNC(=O)COCCOCCNC(=O)CC[C@H](NC(=O)CCCCCCCCCCCCCCCCCCC(=O)O)C(=O)O)C(=O)N[C@@H](C)C(=O)N[C@@H](CCC(N)=O)C(=O)N[C@@H](CCCNC(=N)N)C(=O)N[C@@H](C)C(=O)N[C@@H](Cc1ccccc1)C(=O)N[C@H](C(=O)N[C@@H](CCC(=O)O)C(=O)N[C@@H](Cc1c[nH]c2ccccc12)C(=O)N[C@@H](CC(C)C)C(=O)N[C@@H](CC(C)C)C(=O)N[C@@H](C)C(=O)N[C@@H](CCC(N)=O)C(=O)NCC(=O)N1CCC[C@H]1C(=O)N[C@@H](CO)C(=O)N[C@@H](CO)C(=O)NCC(=O)N[C@@H](C)C(=O)N1CCC[C@H]1C(=O)N1CCC[C@H]1C(=O)N1CCC[C@H]1C(=O)N[C@@H](CO)C(N)=O)C(C)C [Compound 17] (H-Y[Aib]EGTFISDYSIELDKK([AEEA-AEEA-γGlu-C20 diacid])AQRAFVEWLLAQGPSSGAPPPS-NH2) | 56% | 16.3 h | 8 h | 19.9 h | 0.016 nM | > 3 nM | 0.007 nM
CC[C@H](C)[C@H](NC(=O)[C@H](Cc1ccccc1)NC(=O)[C@H](C)NC(=O)[C@H](CCCNC(=N)N)NC(=O)[C@H](CCC(N)=O)NC(=O)[C@H](C)NC(=O)[C@H](CCCCNC(=O)COCCOCCNC(=O)COCCOCCNC(=O)CC[C@H](NC(=O)CCCCCCCCCCCCCCCCCCC(=O)O)C(=O)O)NC(=O)[C@H](CCCCN)NC(=O)[C@H](CC(=O)O)NC(=O)[C@H](CC(C)C)NC(=O)[C@H](CCC(=O)O)NC(=O)[C@@H](NC(=O)[C@H](CO)NC(=O)[C@H](Cc1ccc(O)cc1)NC(=O)[C@H](CC(=O)O)NC(=O)[C@H](CO)NC(=O)[C@@H](NC(=O)[C@H](Cc1ccccc1)NC(=O)[C@@H](NC(=O)CNC(=O)[C@H](CCC(=O)O)NC(=O)C(C)(C)NC(=O)[C@@H](N)Cc1ccc(O)cc1)[C@@H](C)O)[C@@H](C)CC)[C@@H](C)CC)C(=O)N[C@@H](CCC(=O)O)C(=O)N[C@@H](Cc1c[nH]c2ccccc12)C(=O)N[C@@H](CC(C)C)C(=O)N[C@@H](CC(C)C)C(=O)N[C@@H](C)C(=O)N[C@@H](CCC(N)=O)C(=O)NCC(=O)N1CCC[C@H]1C(=O)N[C@@H](CO)C(=O)N[C@@H](CO)C(=O)NCC(=O)N[C@@H](C)C(=O)N1CCC[C@H]1C(=O)N1CCC[C@H]1C(=O)N1CCC[C@H]1C(=O)N[C@@H](CO)C(N)=O [Compound 18] (H-Y[Aib]EGTFISDYSIELDKK([AEEA-AEEA-γGlu-C20 diacid])AQRAFIEWLLAQGPSSGAPPPS-NH2) | 78% | 17.6 h | 4 h | 15.1 h | 0.007 nM | > 3 nM | 0.006 nM
CC[C@H](C)[C@H](NC(=O)[C@H](CO)NC(=O)[C@H](Cc1ccc(O)cc1)NC(=O)[C@H](CC(=O)O)NC(=O)[C@H](CO)NC(=O)[C@@H](NC(=O)[C@H](Cc1ccccc1)NC(=O)[C@@H](NC(=O)CNC(=O)[C@H](CCC(=O)O)NC(=O)C(C)(C)NC(=O)[C@@H](N)Cc1ccc(O)cc1)[C@@H](C)O)[C@@H](C)CC)C(=O)N[C@@H](CCC(=O)O)C(=O)N[C@@H](CC(C)C)C(=O)N[C@@H](CC(=O)O)C(=O)N[C@@H](CCCCN)C(=O)N[C@@H](CCCCNC(=O)COCCOCCNC(=O)COCCOCCNC(=O)CN1CCN(C(=O)CCCCCCCCCCCCCCCCCCC(=O)O)CC1)C(=O)N[C@@H](C)C(=O)N[C@@H](CCC(N)=O)C(=O)N[C@@H](CCCCN)C(=O)N[C@@H](CCC(=O)O)C(=O)N[C@@H](Cc1ccccc1)C(=O)N[C@H](C(=O)N[C@@H](CCC(=O)O)C(=O)N[C@@H](Cc1c[nH]c2ccccc12)C(=O)N[C@@H](CC(C)C)C(=O)N[C@@H](CC(C)C)C(=O)N[C@@H](C)C(=O)N[C@@H](C)C(=O)NCC(=O)N1CCC[C@H]1C(=O)N[C@@H](CO)C(=O)N[C@@H](CO)C(=O)NCC(=O)N[C@@H](C)C(=O)N1CCC[C@H]1C(=O)N1CCC[C@H]1C(=O)N1CCC[C@H]1C(=O)N[C@@H](CO)C(N)=O)C(C)C [Compound 21] (H-Y[Aib]EGTFISDYSIELDKK([AEEA-AEEA-X1])AQKEFVEWLLAAGPSSGAPPPS-NH2) | 67% | 24.8 h | 8 h | 21 h | 0.006 nM | > 3 nM | 0.007 nM
CC[C@H](C)[C@H](NC(=O)[C@H](Cc1ccccc1)NC(=O)[C@H](CC(=O)O)NC(=O)[C@H](CCC(N)=O)NC(=O)[C@H](C)NC(=O)[C@H](C)NC(=O)[C@H](CCCCNC(=O)COCCOCCNC(=O)COCCOCCNC(=O)CN1CCN(C(=O)CCCCCCCCCCCCCCCCCCC(=O)O)CC1)NC(=O)[C@H](CCCCN)NC(=O)[C@H](CC(=O)O)NC(=O)[C@H](CC(C)C)NC(=O)[C@H](CCC(=O)O)NC(=O)[C@@H](NC(=O)[C@H](CO)NC(=O)[C@H](Cc1ccc(O)cc1)NC(=O)[C@H](CC(=O)O)NC(=O)[C@H](CO)NC(=O)[C@@H](NC(=O)[C@H](Cc1ccccc1)NC(=O)[C@@H](NC(=O)CNC(=O)[C@H](CCC(=O)O)NC(=O)C(C)(C)NC(=O)[C@@H](N)Cc1ccc(O)cc1)[C@@H](C)O)[C@@H](C)CC)[C@@H](C)CC)C(=O)N[C@@H](CCC(=O)O)C(=O)N[C@@H](Cc1c[nH]c2ccccc12)C(=O)N[C@@H](CC(C)C)C(=O)N[C@@H](CC(C)C)C(=O)N[C@@H](C)C(=O)NCC(=O)N1CCC[C@H]1C(=O)N[C@@H](CO)C(=O)N[C@@H](CO)C(=O)NCC(=O)N[C@@H](C)C(=O)N1CCC[C@H]1C(=O)N1CCC[C@H]1C(=O)N1CCC[C@H]1C(=O)N[C@@H](CO)C(N)=O [Compound 33] (H-Y[Aib]EGTFISDYSIELDKK([AEEA-AEEA-X1])AAQDFIEWLLAGPSSGAPPPS-NH2) | 78% | 21.7 h | 8 h | 18.7 h | 0.02 nM | > 10 nM | 0.014 nM
